Measured values taken from PubChem BioAssay AID1918993 (Molecular Pharmacology Branch, DTP, NCI, 2023).
Values joined by “and” are separate entries in the source; they are usually repeats but may differ in a detail not shown here. Equal values may be shown once.

Tested on: 233499-124-R-J3-PDC complex spheroid growth
Assay: Anticancer human tumor 233499-124-R-J3-PDC patient-derived colon adenocarcinoma cell line growth inhibition [AhR]
Settings: for viability, T/C: stronger effect = lower value
Method in brief: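 Agents were dosed in half-log steps down from roughly clinical Cmax, or from 10 microM where Cmax was unknown, alone and with AhR antagonists. Read-out: percent test/control growth of tumor spheroids containing HUVEC and MSC stromal cells.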

[1] = curve of first compound, second compound 0.1 µM
[2] = curve of first compound, second compound 0.316 µM
[3] = curve of first compound, second compound 1 µM
[4] = curve of first compound, second compound 3.16 µM
[5] = curve of first compound, second compound 10 µM
[6] = second compound 0.1 µM, first compound 0.0316 µM
[7] = second compound 0.1 µM, first compound 0.1 µM
[8] = second compound 0.1 µM, first compound 0.316 µM
[9] = second compound 0.1 µM, first compound 1 µM
[10] = second compound 0.1 µM, first compound 3.16 µM
[11] = second compound 0.1 µM, first compound 10 µM
[12] = second compound 0.316 µM, first compound 0.0316 µM
[13] = second compound 0.316 µM, first compound 0.1 µM
[14] = second compound 0.316 µM, first compound 0.316 µM
[15] = second compound 0.316 µM, first compound 1 µM
[16] = second compound 0.316 µM, first compound 3.16 µM
[17] = second compound 0.316 µM, first compound 10 µM
[18] = second compound 1 µM, first compound 0.0316 µM
[19] = second compound 1 µM, first compound 0.1 µM
[20] = second compound 1 µM, first compound 0.316 µM
[21] = second compound 1 µM, first compound 1 µM
[22] = second compound 1 µM, first compound 3.16 µM
[23] = second compound 1 µM, first compound 10 µM
[24] = second compound 3.16 µM, first compound 0.0316 µM
[25] = second compound 3.16 µM, first compound 0.1 µM
[26] = second compound 3.16 µM, first compound 0.316 µM
[27] = second compound 3.16 µM, first compound 1 µM
[28] = second compound 3.16 µM, first compound 3.16 µM
[29] = second compound 3.16 µM, first compound 10 µM
[30] = second compound 10 µM, first compound 0.0316 µM
[31] = second compound 10 µM, first compound 0.1 µM
[32] = second compound 10 µM, first compound 0.316 µM
[33] = second compound 10 µM, first compound 1 µM
[34] = second compound 10 µM, first compound 3.16 µM
[35] = second compound 10 µM, first compound 10 µM
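Further: spheroids exposed to agents for seven days before reading.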

With `O=C(c1cc(Cc2n[nH]c(=O)c3ccccc23)ccc1F)N1CCN(C(=O)C2CC2)CC1` + Cc1ccccc1N=Nc1ccc(NC(=O)c2ccnn2C)c(C)c1 the IC50 [1] was over 10 µM, the IC50 [2] was over 10 µM and the IC50 [3] was over 10 µM. The IC50 [4] was over 10 µM, the IC50 [5] was over 10 µM and the viability, T/C [6] was 106%. It also gave a viability, T/C [7] of 109%, a viability, T/C [8] of 89% and a viability, T/C [9] of 117%. It also gave a viability, T/C [10] of 114%, a viability, T/C [11] of 112% and a viability, T/C [12] of 106%. The viability, T/C [13] was 99.9%, the viability, T/C [14] was 89.6% and the viability, T/C [15] was 93.5%. The viability, T/C [16] was 92.7%, the viability, T/C [17] was 106% and the viability, T/C [18] was 99.7%. The viability, T/C [19] was 106%, the viability, T/C [20] was 98.1% and the viability, T/C [21] was 106%. It also gave a viability, T/C [22] of 110%, a viability, T/C [23] of 111% and a viability, T/C [24] of 100%. The viability, T/C [25] was 106%, the viability, T/C [26] was 92.8% and the viability, T/C [27] was 100%. For the same compound, the viability, T/C [28] was 89.3%, the viability, T/C [29] was 92.8% and the viability, T/C [30] was 106%. It also gave a viability, T/C [31] of 107%, a viability, T/C [32] of 110% and a viability, T/C [33] of 111%. For the same compound, the viability, T/C [34] was 98.9% and the viability, T/C [35] was 101%.
`CC1COCCN1c1cc(C2(S(C)(=N)=O)CC2)nc(-c2ccnc3[nH]ccc23)n1` (configuration not stated) + Cc1cncc(-c2nc(NCCc3c[nH]c4ccccc34)c3ncn(C(C)C)c3n2)c1 showed an IC50 [1] of over 10 µM, an IC50 [2] of over 10 µM and an IC50 [3] of over 10 µM. For the same compound, the IC50 [4] was over 10 µM, the IC50 [5] was under 0.0316 µM and the viability, T/C [6] was 99%. It also gave a viability, T/C [7] of 90.3%, a viability, T/C [8] of 95.1% and a viability, T/C [9] of 95.1%. It also gave a viability, T/C [10] of 93%, a viability, T/C [11] of 81.2% and a viability, T/C [12] of 80.7%. For the same compound, the viability, T/C [13] was 71%, the viability, T/C [14] was 61.6% and the viability, T/C [15] was 91.2%. It also gave a viability, T/C [16] of 92.7%, a viability, T/C [17] of 78.1% and a viability, T/C [18] of 73.9%. For the same compound, the viability, T/C [19] was 70.1%, the viability, T/C [20] was 78.7% and the viability, T/C [21] was 77.2%. For the same compound, the viability, T/C [22] was 63.3%, the viability, T/C [23] was 64.7% and the viability, T/C [24] was 81.8%. The viability, T/C [25] was 76%, the viability, T/C [26] was 81.8% and the viability, T/C [27] was 83.1%. The viability, T/C [28] was 71.3%, the viability, T/C [29] was 59.7% and the viability, T/C [30] was 11.2%. It also gave a viability, T/C [31] of 14.3%, a viability, T/C [32] of 20% and a viability, T/C [33] of 15.1%. It also gave a viability, T/C [34] of 14% and a viability, T/C [35] of 11.1%.
`COc1cccc2c1C(=O)c1c(O)c3c(c(O)c1C2=O)CC(O)(C(=O)CO)CC3OC1CC(N)C(O)C(C)O1` (configuration not stated) was tested, and the viability, T/C (compound 0.0316 µM) was 98% and 91.4% and 90.8%, the viability, T/C (compound 0.1 µM) was 85.2% and 85.3% and 89.7% and the viability, T/C (compound 0.316 µM) was 90.2% and 92.3% and 93.3%. For the same compound, the viability, T/C (compound 1 µM) was 97.9% and 97.3% and 87.4%, the viability, T/C (compound 3.16 µM) was 66.9% and 78% and 60.5% and the viability, T/C (compound 10 µM) was 60% and 71.6% and 40.6%. For the same compound, the IC50 (curve of compound) was > 10 µM and 5.81 µM.
`COc1cccc2c1C(=O)c1c(O)c3c(c(O)c1C2=O)CC(O)(C(=O)CO)CC3OC1CC(N)C(O)C(C)O1` (configuration not stated) + Cc1cncc(-c2nc(NCCc3c[nH]c4ccccc34)c3ncn(C(C)C)c3n2)c1 gave an IC50 [1] of 8.48 µM, an IC50 [2] of over 10 µM and an IC50 [3] of 2.77 µM. It also gave an IC50 [4] of 1.35 µM, an IC50 [5] of under 0.0316 µM and a viability, T/C [6] of 102%. For the same compound, the viability, T/C [7] was 84.1%, the viability, T/C [8] was 80.3% and the viability, T/C [9] was 83.2%. It also gave a viability, T/C [10] of 49.3%, a viability, T/C [11] of 51.2% and a viability, T/C [12] of 73.8%. The viability, T/C [13] was 90.8%, the viability, T/C [14] was 79.8% and the viability, T/C [15] was 78%. It also gave a viability, T/C [16] of 61.3%, a viability, T/C [17] of 50.6% and a viability, T/C [18] of 87.4%. For the same compound, the viability, T/C [19] was 72.8%, the viability, T/C [20] was 76.9% and the viability, T/C [21] was 71%. For the same compound, the viability, T/C [22] was 46.9%, the viability, T/C [23] was 32.5% and the viability, T/C [24] was 81.8%. For the same compound, the viability, T/C [25] was 87.1%, the viability, T/C [26] was 77.5% and the viability, T/C [27] was 60.8%. For the same compound, the viability, T/C [28] was 21.3%, the viability, T/C [29] was 4.5% and the viability, T/C [30] was 7.64%. It also gave a viability, T/C [31] of 13.7%, a viability, T/C [32] of 41% and a viability, T/C [33] of 13.4%. For the same compound, the viability, T/C [34] was 14.4% and the viability, T/C [35] was 0.5%.
